Assays:
[1] = target: Kappa-type opioid receptor (Homo sapiens, UniProt P41145); assay: DRUGMATRIX: Opiate kappa (OP2, KOP) radioligand binding (ligand: [3H] Diprenorphine); assay type: cell membranes, HEK293, Membrane; details: hek293; Not Active = under 50% inhibition at 10 µM
[2] = target: Receptor tyrosine-protein kinase erbB-2 (Homo sapiens, UniProt P04626); assay: biochemical; assay type: cell-based, Insect cells; details: insect cells;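 further: inhibition of HER2 kinase enzyme activity, measured with Poly(Glu:Tyr) as the phosphorylation substrate; in other assays of this panel Not Active means under 50% inhibition at 10 µM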
Sequence of Receptor tyrosine-protein kinase erbB-2 (P04626 whole entry): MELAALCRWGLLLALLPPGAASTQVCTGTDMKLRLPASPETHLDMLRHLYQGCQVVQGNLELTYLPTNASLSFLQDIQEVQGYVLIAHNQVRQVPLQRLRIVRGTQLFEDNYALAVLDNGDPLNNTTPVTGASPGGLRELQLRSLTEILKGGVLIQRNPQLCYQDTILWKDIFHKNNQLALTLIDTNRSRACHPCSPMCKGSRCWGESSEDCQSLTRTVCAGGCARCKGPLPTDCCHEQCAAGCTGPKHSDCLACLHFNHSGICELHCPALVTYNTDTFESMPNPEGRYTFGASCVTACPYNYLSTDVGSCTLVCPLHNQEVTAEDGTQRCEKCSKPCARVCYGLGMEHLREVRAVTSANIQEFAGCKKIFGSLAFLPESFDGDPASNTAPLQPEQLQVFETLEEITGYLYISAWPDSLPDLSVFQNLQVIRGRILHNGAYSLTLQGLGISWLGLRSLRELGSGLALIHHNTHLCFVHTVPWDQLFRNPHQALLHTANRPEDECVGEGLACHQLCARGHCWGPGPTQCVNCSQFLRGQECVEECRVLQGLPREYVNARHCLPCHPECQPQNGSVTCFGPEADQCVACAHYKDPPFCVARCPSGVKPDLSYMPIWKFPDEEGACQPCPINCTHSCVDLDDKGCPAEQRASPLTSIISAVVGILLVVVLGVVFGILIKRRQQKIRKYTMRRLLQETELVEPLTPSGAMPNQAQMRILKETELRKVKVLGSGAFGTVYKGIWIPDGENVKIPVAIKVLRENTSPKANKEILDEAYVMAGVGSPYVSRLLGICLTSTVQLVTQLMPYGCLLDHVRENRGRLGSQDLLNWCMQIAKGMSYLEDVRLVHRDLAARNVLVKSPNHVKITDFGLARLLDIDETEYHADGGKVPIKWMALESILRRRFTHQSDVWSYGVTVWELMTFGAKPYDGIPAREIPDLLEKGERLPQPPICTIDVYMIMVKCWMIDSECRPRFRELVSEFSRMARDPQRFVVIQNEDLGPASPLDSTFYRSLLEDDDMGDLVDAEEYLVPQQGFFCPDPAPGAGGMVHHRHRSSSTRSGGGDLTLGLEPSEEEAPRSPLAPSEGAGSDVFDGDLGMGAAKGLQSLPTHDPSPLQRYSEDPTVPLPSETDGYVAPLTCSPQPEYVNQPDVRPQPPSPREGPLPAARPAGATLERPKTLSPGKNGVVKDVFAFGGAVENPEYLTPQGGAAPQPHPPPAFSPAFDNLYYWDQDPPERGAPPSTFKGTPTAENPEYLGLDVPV

[3] = target: Cytochrome P450 2C9 (Homo sapiens, UniProt P11712); details: bti-tn-5b1-4; further: in other assays of this panel Not Active means under 50% inhibition at 10 µM
[4] = target: Melanocortin receptor 3 (Homo sapiens, UniProt P41968); assay type: cell membranes, Membrane; details: hek293; further: in other assays of this panel Not Active means under 50% inhibition at 10 µM
Sequence of Melanocortin receptor 3 (P41968 whole entry): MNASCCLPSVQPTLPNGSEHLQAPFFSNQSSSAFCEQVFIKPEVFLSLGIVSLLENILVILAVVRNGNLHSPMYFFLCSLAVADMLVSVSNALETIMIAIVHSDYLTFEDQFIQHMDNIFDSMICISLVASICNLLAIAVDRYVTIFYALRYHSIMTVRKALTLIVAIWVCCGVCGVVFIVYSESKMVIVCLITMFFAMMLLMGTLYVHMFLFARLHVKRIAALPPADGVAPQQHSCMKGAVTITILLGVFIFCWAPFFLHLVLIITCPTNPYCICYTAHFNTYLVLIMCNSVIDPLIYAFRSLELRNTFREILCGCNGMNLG

[5] = target: Insulin receptor (Rattus norvegicus, UniProt P15127); assay type: cell membranes, Wistar, Liver, Membrane; further: in other assays of this panel Not Active means under 50% inhibition at 10 µM
Sequence of Insulin receptor (P15127 27-759 limits assumed): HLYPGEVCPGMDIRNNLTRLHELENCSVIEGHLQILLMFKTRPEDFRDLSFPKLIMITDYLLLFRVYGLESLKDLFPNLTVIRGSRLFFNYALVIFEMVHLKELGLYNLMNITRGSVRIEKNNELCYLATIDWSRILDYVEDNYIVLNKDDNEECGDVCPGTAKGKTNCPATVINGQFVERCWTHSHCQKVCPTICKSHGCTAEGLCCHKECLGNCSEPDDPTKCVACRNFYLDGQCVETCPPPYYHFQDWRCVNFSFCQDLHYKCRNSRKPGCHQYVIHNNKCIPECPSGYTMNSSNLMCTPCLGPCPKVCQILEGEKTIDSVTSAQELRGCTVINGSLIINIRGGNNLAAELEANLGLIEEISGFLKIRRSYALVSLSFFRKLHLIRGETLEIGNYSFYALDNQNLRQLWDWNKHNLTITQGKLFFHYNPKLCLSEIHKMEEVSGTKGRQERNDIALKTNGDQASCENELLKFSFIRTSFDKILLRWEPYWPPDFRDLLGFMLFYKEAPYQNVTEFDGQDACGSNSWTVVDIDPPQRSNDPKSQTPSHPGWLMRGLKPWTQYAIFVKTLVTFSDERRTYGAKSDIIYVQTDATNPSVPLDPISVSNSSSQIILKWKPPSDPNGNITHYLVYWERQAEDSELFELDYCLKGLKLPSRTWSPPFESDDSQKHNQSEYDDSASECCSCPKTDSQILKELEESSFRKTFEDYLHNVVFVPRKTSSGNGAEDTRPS
Sequence of Insulin receptor (P15127 764-1383 limits assumed): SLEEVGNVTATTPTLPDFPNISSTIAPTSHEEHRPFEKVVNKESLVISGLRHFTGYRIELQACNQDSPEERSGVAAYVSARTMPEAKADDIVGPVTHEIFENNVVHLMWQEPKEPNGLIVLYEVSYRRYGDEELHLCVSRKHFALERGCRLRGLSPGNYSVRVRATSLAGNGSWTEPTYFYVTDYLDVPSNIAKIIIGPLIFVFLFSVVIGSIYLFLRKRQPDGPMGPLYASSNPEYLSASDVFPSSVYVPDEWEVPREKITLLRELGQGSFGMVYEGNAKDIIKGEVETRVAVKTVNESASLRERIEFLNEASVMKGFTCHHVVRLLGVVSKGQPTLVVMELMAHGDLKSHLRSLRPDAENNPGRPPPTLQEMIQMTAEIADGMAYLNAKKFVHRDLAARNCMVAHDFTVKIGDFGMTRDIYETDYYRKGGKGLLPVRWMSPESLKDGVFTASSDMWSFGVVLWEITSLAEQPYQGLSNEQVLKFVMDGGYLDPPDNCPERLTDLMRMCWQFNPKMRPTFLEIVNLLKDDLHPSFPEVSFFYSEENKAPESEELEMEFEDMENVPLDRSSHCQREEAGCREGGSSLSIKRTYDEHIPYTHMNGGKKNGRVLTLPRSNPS

[6] = target: 5-hydroxytryptamine receptor 1B (Rattus norvegicus, UniProt P28564); assay type: cell membranes, Wistar, Cerebral cortex, Membrane; further: in other assays of this panel Not Active means under 50% inhibition at 10 µM
[7] = DRUGMATRIX: Tumor Necrosis Factor (TNF), Non-Selective radioligand binding (ligand: [125I] TNF-alpha); assay type: cell membranes, Membrane; details: u-937; Not Active = under 50% inhibition at 10 µM
[8] = target: Mitogen-activated protein kinase 1 (Homo sapiens, UniProt P28482); assay: DRUGMATRIX: Protein Serine/Threonine Kinase, ERK2 enzyme inhibition (substrate: Myelin Basic Protein); set-up: species or system Escherichia coli; details: Not Active = under 50% inhibition at 10 µM
Sequence of Mitogen-activated protein kinase 1 (P28482 whole entry): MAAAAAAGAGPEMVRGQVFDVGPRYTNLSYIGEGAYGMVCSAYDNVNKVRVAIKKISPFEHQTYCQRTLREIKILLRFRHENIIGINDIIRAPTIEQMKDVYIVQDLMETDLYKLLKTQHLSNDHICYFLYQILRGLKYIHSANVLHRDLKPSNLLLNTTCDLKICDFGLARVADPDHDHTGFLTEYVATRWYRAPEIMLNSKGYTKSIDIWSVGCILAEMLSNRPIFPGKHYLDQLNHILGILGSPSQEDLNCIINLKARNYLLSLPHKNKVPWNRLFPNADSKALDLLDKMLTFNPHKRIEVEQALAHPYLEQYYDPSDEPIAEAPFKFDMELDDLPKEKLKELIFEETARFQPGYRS

[9] = DRUGMATRIX: GABAA, Chloride Channel, TBOB radioligand binding (ligand: [3H] TBOB); assay type: cell membranes, Rattus norvegicus, Wistar, Cerebral cortex, Membrane; details: Not Active = under 50% inhibition at 10 µM
[10] = target: T1, Muscarinic acetylcholine receptor M4 (Homo sapiens, UniProt P08173); assay type: cell membranes, CHO-K1, Membrane; details: cho-k1; further: in other assays of this panel Not Active means under 50% inhibition at 10 µM
T1 sequence (P08173 whole entry): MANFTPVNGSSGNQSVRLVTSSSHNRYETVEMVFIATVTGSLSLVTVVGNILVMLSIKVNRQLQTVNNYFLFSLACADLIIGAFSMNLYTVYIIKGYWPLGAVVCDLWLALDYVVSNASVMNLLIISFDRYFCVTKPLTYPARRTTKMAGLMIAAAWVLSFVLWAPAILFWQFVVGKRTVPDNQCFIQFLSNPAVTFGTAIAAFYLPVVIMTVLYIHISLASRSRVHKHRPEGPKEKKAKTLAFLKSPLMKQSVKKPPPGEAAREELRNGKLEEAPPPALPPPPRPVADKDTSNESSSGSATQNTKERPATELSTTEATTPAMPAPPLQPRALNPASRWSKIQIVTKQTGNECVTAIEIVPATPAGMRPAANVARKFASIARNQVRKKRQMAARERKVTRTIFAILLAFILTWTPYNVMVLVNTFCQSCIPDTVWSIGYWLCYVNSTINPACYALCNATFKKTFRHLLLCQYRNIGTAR

[11] = target: T2, Glucocorticoid receptor (Homo sapiens, UniProt P04150); details: hela s3; further: in other assays of this panel Not Active means under 50% inhibition at 10 µM
T2 sequence (P04150 whole entry): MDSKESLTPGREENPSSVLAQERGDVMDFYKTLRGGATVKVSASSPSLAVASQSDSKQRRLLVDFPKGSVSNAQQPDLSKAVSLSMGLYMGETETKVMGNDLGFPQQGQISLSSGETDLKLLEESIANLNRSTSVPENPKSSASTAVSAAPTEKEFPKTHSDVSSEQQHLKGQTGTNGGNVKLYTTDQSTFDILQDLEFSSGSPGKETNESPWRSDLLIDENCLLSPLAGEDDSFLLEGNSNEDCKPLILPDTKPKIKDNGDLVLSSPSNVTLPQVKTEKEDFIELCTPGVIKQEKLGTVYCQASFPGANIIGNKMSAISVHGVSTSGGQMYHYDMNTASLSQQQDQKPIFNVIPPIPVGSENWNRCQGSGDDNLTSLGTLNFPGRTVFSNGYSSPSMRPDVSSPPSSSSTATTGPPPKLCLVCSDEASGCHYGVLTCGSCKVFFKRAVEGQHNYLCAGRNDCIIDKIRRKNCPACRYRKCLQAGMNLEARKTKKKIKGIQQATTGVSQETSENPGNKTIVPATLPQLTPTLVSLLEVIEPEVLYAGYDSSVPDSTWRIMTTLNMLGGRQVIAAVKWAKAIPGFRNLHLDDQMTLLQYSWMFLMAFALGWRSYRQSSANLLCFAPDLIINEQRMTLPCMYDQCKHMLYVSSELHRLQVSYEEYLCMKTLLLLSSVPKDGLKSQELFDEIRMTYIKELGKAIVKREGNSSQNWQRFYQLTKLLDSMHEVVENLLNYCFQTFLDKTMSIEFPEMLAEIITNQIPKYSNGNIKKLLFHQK

[12] = target: T3, Caspase-1 (Homo sapiens, UniProt P29466); set-up: species or system Escherichia coli
T3 sequence (P29466 whole entry): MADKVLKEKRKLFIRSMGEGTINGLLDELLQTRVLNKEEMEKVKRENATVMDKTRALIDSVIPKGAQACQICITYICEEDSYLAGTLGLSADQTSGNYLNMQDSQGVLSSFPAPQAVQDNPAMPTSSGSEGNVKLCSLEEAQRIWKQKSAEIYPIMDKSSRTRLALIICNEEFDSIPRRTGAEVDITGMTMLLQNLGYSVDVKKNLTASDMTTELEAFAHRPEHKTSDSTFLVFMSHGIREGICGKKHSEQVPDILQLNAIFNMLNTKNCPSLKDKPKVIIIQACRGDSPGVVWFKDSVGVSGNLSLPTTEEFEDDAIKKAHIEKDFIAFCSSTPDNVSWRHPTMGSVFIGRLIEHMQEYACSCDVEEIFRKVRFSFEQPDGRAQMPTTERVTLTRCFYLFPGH

[13] = target: Epidermal growth factor receptor (Homo sapiens, UniProt P00533); assay: DRUGMATRIX: Protein Tyrosine Kinase, EGF Receptor enzyme inhibition (substrate: Poly(Glu:Tyr)); assay type: cell-based, Insect cells; details: insect cells; Not Active = under 50% inhibition at 10 µM
Sequence of Epidermal growth factor receptor (P00533 whole entry): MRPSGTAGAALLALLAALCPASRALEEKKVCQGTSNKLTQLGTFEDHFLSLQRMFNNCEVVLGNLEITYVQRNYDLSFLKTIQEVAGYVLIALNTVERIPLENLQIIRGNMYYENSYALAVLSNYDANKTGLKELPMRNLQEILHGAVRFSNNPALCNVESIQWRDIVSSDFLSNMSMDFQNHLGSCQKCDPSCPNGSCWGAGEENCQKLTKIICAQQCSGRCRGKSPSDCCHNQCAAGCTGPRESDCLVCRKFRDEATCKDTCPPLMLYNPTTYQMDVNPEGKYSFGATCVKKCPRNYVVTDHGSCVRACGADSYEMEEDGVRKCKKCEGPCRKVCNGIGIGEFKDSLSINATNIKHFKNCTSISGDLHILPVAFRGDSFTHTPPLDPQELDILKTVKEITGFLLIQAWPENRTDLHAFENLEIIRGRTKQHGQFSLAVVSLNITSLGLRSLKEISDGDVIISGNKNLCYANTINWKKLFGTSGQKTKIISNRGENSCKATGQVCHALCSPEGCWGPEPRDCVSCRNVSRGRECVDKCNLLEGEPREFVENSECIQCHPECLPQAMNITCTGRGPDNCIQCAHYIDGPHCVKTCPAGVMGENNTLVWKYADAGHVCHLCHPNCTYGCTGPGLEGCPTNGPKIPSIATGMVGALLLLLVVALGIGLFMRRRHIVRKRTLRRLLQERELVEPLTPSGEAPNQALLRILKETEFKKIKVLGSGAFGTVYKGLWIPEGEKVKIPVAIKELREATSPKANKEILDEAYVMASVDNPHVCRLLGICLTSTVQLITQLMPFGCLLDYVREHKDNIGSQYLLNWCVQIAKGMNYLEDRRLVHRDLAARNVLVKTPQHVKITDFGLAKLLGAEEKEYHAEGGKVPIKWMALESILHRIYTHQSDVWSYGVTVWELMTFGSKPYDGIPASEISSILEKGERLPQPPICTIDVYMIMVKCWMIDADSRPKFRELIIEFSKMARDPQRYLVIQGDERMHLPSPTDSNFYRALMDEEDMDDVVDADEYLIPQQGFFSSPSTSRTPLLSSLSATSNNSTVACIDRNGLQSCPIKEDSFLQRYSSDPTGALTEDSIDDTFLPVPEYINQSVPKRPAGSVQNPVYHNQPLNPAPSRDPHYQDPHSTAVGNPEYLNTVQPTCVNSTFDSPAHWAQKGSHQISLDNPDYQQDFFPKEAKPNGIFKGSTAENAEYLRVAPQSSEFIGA

[14] = target: T4, C-C chemokine receptor type 4 (Homo sapiens, UniProt P51679); assay type: cell membranes, Membrane; details: chem-1; further: in other assays of this panel Not Active means under 50% inhibition at 10 µM
T4 sequence (P51679 whole entry): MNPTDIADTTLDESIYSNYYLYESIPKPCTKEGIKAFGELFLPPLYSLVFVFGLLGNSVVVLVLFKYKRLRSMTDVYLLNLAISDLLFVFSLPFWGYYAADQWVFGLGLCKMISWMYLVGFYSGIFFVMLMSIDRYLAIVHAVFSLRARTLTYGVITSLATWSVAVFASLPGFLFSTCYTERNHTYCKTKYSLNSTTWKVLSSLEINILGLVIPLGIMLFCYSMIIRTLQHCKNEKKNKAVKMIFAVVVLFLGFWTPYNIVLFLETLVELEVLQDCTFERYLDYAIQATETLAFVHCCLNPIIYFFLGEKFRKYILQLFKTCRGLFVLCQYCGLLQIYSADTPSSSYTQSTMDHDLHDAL

Sequence of Kappa-type opioid receptor (P41145 whole entry): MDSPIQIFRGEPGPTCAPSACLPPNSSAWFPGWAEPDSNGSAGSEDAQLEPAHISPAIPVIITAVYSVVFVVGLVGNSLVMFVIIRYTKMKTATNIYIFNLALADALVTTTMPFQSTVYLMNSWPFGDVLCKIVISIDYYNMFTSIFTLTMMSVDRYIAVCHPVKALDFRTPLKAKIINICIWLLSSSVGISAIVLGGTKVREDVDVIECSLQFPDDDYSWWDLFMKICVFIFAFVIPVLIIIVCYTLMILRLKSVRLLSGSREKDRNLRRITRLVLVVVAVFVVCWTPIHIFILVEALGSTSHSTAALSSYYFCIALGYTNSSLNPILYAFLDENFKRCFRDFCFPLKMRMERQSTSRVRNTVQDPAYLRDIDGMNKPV

C=C1CC[C@H](O)C/C1=C/C=C1\CCC[C@]2(C)[C@@H]([C@H](C)/C=C/[C@H](C)C(C)C)CC[C@@H]12 [ERGOCALCIFEROL]
Not Active: IC50 [1] | IC50 [2] | IC50 [3] | Ki [3] | IC50 [4] | IC50 [5] | IC50 [6] | IC50 [7] | Ki [7] | IC50 [8] | IC50 [9] | Ki [9] | IC50 [10] | IC50 [11] | IC50 [12] | IC50 [13] | IC50 [14]

Cc1c(-c2ccccc2)oc2c(C(=O)OCCN3CCCCC3)cccc2c1=O [FLAVOXATE]
Not Active: IC50 [1] | IC50 [2] | IC50 [3] | Ki [3] | IC50 [4] | IC50 [5] | IC50 [6] | IC50 [7] | Ki [7] | IC50 [8] | IC50 [9] | Ki [9] | IC50 [10] | IC50 [11] | IC50 [12] | IC50 [13] | IC50 [14]

Nc1nc(=O)[nH]cc1F [FLUCYTOSINE]
Not Active: IC50 [1] | IC50 [2] | IC50 [3] | Ki [3] | IC50 [4] | IC50 [5] | IC50 [6] | IC50 [7] | Ki [7] | IC50 [8] | IC50 [9] | Ki [9] | IC50 [10] | IC50 [11] | IC50 [12] | IC50 [13] | IC50 [14]

O=C1OC2(c3ccc(O)cc3Oc3cc(O)ccc32)c2ccccc21 [FLUORESCEIN]
Not Active: IC50 [1] | IC50 [2] | IC50 [3] | Ki [3] | IC50 [4] | IC50 [5] | IC50 [6] | IC50 [7] | Ki [7] | IC50 [8] | IC50 [9] | Ki [9] | IC50 [10] | IC50 [11] | IC50 [12] | IC50 [13] | IC50 [14]

O=c1[nH]cc(F)c(=O)[nH]1 [FLUOROURACIL]
Not Active: IC50 [1] | IC50 [2] | IC50 [3] | Ki [3] | IC50 [4] | IC50 [5] | IC50 [6] | IC50 [7] | Ki [7] | IC50 [8] | IC50 [9] | Ki [9] | IC50 [10] | IC50 [11] | IC50 [12] | IC50 [13] | IC50 [14]

NCC1(CC(=O)O)CCCCC1 [GABAPENTIN]
Not Active: IC50 [1] | IC50 [2] | IC50 [3] | Ki [3] | IC50 [4] | IC50 [5] | IC50 [6] | IC50 [7] | Ki [7] | IC50 [8] | IC50 [9] | Ki [9] | IC50 [10] | IC50 [11] | IC50 [12] | IC50 [13] | IC50 [14]

CC[N+](CC)(CC)CCOc1cccc(OCC[N+](CC)(CC)CC)c1OCC[N+](CC)(CC)CC.[I-].[I-].[I-] [GALLAMINE TRIETHIODIDE]
Not Active: IC50 [1] | IC50 [2] | IC50 [3] | Ki [3] | IC50 [4] | IC50 [5] | IC50 [6] | IC50 [7] | Ki [7] | IC50 [8] | IC50 [9] | Ki [9] | IC50 [10] | IC50 [11] | IC50 [12] | IC50 [13] | IC50 [14]

Nc1nc2c(ncn2COC(CO)CO)c(=O)[nH]1 [GANCICLOVIR]
Not Active: IC50 [1] | IC50 [2] | IC50 [3] | Ki [3] | IC50 [4] | IC50 [5] | IC50 [6] | IC50 [7] | Ki [7] | IC50 [8] | IC50 [9] | Ki [9] | IC50 [10] | IC50 [11] | IC50 [12] | IC50 [13] | IC50 [14]

COC1=CC(=O)C[C@@H](C)[C@]12Oc1c(Cl)c(OC)cc(OC)c1C2=O [GRISEOFULVIN]
Not Active: IC50 [1] | IC50 [2] | IC50 [3] | Ki [3] | IC50 [4] | IC50 [5] | IC50 [6] | IC50 [7] | Ki [7] | IC50 [8] | IC50 [9] | Ki [9] | IC50 [10] | IC50 [11] | IC50 [12] | IC50 [13] | IC50 [14]
